# Patent US20150265554A1, “Treatment of MeCP-2 Associated Disorders” (UNIVERSITÉ D'AIX-MARSEILLE, priority 2010, published 2015)
# Columns and labels:
# Mecp2-deficient mice [1] = experiment: Open-field activity (total distance moved, velocity); assay type: in vivo, mouse
# Experimental: Experiments were performed on Sprague dawley rats and B6.129P2(C)- MeCP2 tm1-1 Bird mouse model for RTT (Guy, J., Hendrich, B., Holmes, M., Martin, J. E., Bird, A. (2001) A mouse Mecp2-null mutation causes neurological symptoms that mimic Rett syndrome. Nat. Genet. 27, 322-326). The mice were obtained from the Jackson Laboratory and maintained on a C57BL/6 background. The rats were obtained from Charles River Laboratories, France. The experimental procedures were carried out in keeping with the European guidelines for the care and use of laboratory animals (Council Directive […]). For the mouse experiments, hemizygous mutant males (MeCP2^-/y) were generated by crossing heterozygous knockout females to C57BL/6 males. Genotyping was performed by routine PCR technique according to Jackson Laboratory protocols and as previously described (Viemari, J. C., Roux, J. C., Tryba, A. K., Saywell, V., Burnet, H., Peña, F., Zanella, S., Bévengut, M., Barthelemy-Requin, M., Herzing, L. B., Moncla, A., Mancini, J., Ramirez, J. M., Villard, L., Hilaire, G. (2005) Mecp2 deficiency disrupts norepinephrine and respiratory systems in mice. J. Neurosci. 25, 11521-11530).
# From P30, animals received a cysteamine treatment in their drinking water (225 mg/kg/day) (Sigma-Aldrich; St-Quentin, France). Every 2 days, mice were weighted, cysteamine solution renewed and treatment consumption checked. […] Seventy-nine Mecp2 deficient mice were studied (lifespan study, n=17 cysteamine-treated and n=42 untreated; motor evaluation n=10 cysteamine-treated and n=10 untreated). The mice were assigned to each experimental group by an investigator who was blind to their genotype. Open-field activity was measured in an arena made of clear perspex (38×30 cm). The test session lasted 15 min with data recorded using the Ethovision 2.3.19 tracking system (Noldus Information Technology). Velocity (cm/s) and total distance moved (cm) were recorded. Velocity calculations on Ethovision were obtained using an input filter setting the minimal distance moved (0.6 cm) so that ambulations shorter than this value were never taken into account.
# Mecp2-deficient mice [2] = experiment: Lifespan (survival) study, oral cysteamine in drinking water; assay type: in vivo, mouse; conditions: cysteamine in drinking water 225 mg/kg/day from P30, mean±SEM, n=17, p<0.05 vs vehicle (65±2.2 days), Kaplan-Meir log-rank test
# Experimental: Experiments were performed on Sprague dawley rats and B6.129P2(C)- MeCP2 tm1-1 Bird mouse model for RTT (Guy, J., Hendrich, B., Holmes, M., Martin, J. E., Bird, A. (2001) A mouse Mecp2-null mutation causes neurological symptoms that mimic Rett syndrome. Nat. Genet. 27, 322-326). The mice were obtained from the Jackson Laboratory and maintained on a C57BL/6 background. The rats were obtained from Charles River Laboratories, France. The experimental procedures were carried out in keeping with the European guidelines for the care and use of laboratory animals (Council Directive […]). For the mouse experiments, hemizygous mutant males (MeCP2^-/y) were generated by crossing heterozygous knockout females to C57BL/6 males. […]
# From P30, animals received a cysteamine treatment in their drinking water (225 mg/kg/day) (Sigma-Aldrich; St-Quentin, France). […] Open-field activity was measured in an arena made of clear perspex (38×30 cm). The test session lasted 15 min with data recorded using the Ethovision 2.3.19 tracking system (Noldus Information Technology). Velocity (cm/s) and total distance moved (cm) were recorded. […]
smiles,measurement,setting,value
NCCS [cysteamine],locomotion in open field arena (total distance moved and velocity),"Mecp2-deficient mice [1]; Mecp2-deficient mice, chronic oral cysteamine vs placebo group, especially in the later stages",significantly improved locomotion
same,mouse velocity in open field,"Mecp2-deficient mice [1]; Mecp2-deficient mice, oral cysteamine vs vehicle, from P65, p<0.05, n=10 per group",significantly increased
same,total distance traveled in the open field arena during the 15-minute session,"Mecp2-deficient mice [1]; Mecp2-deficient mice, oral cysteamine vs vehicle, from P75, n=10 per group",statistically increased
same,"total distance, difference between cysteamine treated and placebo group","Mecp2-deficient mice [1]; P55, open field 15 min",+3%
same,"velocity, difference between cysteamine treated and placebo group","Mecp2-deficient mice [1]; P55, open field 15 min",+18%
same,"total distance, difference between cysteamine treated and placebo group","Mecp2-deficient mice [1]; P65, open field 15 min",+40%
same,"velocity, difference between cysteamine treated and placebo group","Mecp2-deficient mice [1]; P65, open field 15 min",+33%
same,"total distance, difference between cysteamine treated and placebo group","Mecp2-deficient mice [1]; P75, open field 15 min",+128%
same,"velocity, difference between cysteamine treated and placebo group","Mecp2-deficient mice [1]; P75, open field 15 min",+65%
same,"total distance, difference between cysteamine treated and placebo group","Mecp2-deficient mice [1]; P85, open field 15 min",+485%
same,"velocity, difference between cysteamine treated and placebo group","Mecp2-deficient mice [1]; P85, open field 15 min",+74%
same,life span,Mecp2-deficient mice [2],74.8 ± 5.2 days
